Measurements taken from US10179142B2, “Treatment and/or prevention of bone metastasis” (The Arizona Board of Regents on behalf of The University of …, priority 2013, dated 2019).
“Also recorded” adds a separate entry of the source.

Legend:
Type in all cases: cell-based, human
[1] = system: active Rac1 in PC-3 cells; test: Rac1 activation assay (GLISA); conditions: 1 μM, 4 hours, then 50 ng/ml hHGF for 2 minutes
Experimental: Rac1 activity was determined by the colorimetric GLISA Kit BK128 (Cytoskeleton, Inc, Denver, Co). Briefly, PC-3 (PC-3, pKLO.1, GS-1 and GS-2 cells), DU 145 and LNCap cells were grown to 75% confluence and then serum starved for 48 hours. Drugs were then added for 4 hours and cells were stimulated with 50 ng/ml hHGF (Gibco Life Sciences, Carlsbad, Ca) for 2 minutes. Cells were then lysed and harvested as described in the kit-supplied protocol. Protein concentration was normalized to 1.0 g/l. Plates were read in an absorbance spectrophotometer at 490 nm at 24° C. with 5 s medium orbital shaking. Data were analyzed as described in the supplied protocol. The results represent an average of three independent experiments, each run in duplicates.
A cellular screen of all hit compounds was conducted using the GLISA Rac1 activation kit. Briefly, PC-3 cells were drugged for 4 hours at 1 μM concentration with the selected compounds. Cells were then stimulated with 50 ng/ml of hHGF for 2 minutes. […] The isovolume of Tiam-1 PH domain (PDB 1FOE) was generated using GRID for the H-bond acceptor (−3.6 kcal/mol), the H-bond donor (−7.3 kcal/mol) and hydrophobic (−2.5 kcal/mol) probes. The critical residues are labeled around the isovolume surfaces. The dash lines represent hydrogen bonds between protein and inhibitors. […]

PC-3 cells [2] = test: Migration wound closure assay; conditions: for migration / motility (wound healing): prostate cancer cells, concentration not given
Experimental: PC-3, DU145 and LNCaP cells were grown in six-well plates in the presence of 10% FBS. Once the cells formed a monolayer, near confluency a wound was done manually with a sterile […] pipette tip in the center of each well. Cells were treated with vehicle alone (DMSO) or 10 μM of compound IV and were grown in the presence of 2% FBS. After 18 hours, the migrating cells were photographed. The wound closure was quantified by measuring the distance between the two sides of the wound. The results represent an average of two independent experiments, each run in triplicates.
(§1) As reported previously, inhibition of Tiam-1 and subsequent inactivation of downstream signaling proteins leads to reduced actin cytoskeleton rearrangements resulting in decreased cell motility. […] FIG. 4, Panel A, A wound channel was introduced near-to-confluent non-treated or treated PC-3 cells with 10 μM V pKLO1 mock-transfection control cells, and shRNA cell line 1.2 (GS-1). […] FIG. 4, Panel B, PC-3 cells and Tiam-1 shRNA cell line 1.2 (shRNA 1.2) were treated as indicated, then stimulated with 20% FBS for 20 minutes to induce lamellipodia formation and stained with rhodamin phalloidin. Individual lamellipodia were counted in a minimum of 10 cells in each respective group and statistical analysis was performed using a Student's t-test. […] FIG. 4, Panel C, pKLO1 PC-3 cells, pKLO1 treated with 10 μM compound V and shRNA 1.2 cells were allowed to invade through Matrigel-coated transwell plates. Invading cells were stained after 12 hours and counted at 20× power (left side). […] In order to test our hypothesis, cells were stained with rhodamin phalloidin and then analyzed for actin/cytoskeleton formations, such as lamellipodia. […] Thus, the observed reduction in cellular motility in compound V treated cells and Tiam-1 silenced cells may be the result of f-actin disruption and reduced frequencies of lamellipodia formation. We next tested whether the compound of Formula V affected invasion of PC-3 through Matrigel-coated transwells.

PC-3 cells [3] = test: Lamellipodia forming assay
Experimental: Glass coverslips were sterilized with 100% EtOH and placed in 6-well plates. PC-3 cells, pKLO.1, GS-1 and GS-2 cells were plated at 3000 cells/well and allowed to adhere overnight. Cells where then serum starved for 48 hours, then treated with the indicated drug for 12 hours, and stimulated with 20% FBS for 30 minutes. Coverslips were then removed from the plates, washed twice with cold PBS, and fixed with 3.7% paraformaldehyde solution in PBS for 10 minutes. Cells were then permeabilized using 0.1% Triton X-100 for 5 minutes. Cells were stained with rhodamine phalloidin (Invitrogen, Carlsbad, Calif.) for 20 minutes using the supplied protocol. Coverslips were then air-dried and mounted using ProLong Gold with DAPI (Invitrogen, Carlsbad, Calif.) and stored at 4° C. Cells were visualized at 40× using Olympus Bx-50 microscope with the CellSens imaging software. Individual lamellipodia were counted in a minimum of 10 cells in each respective group and statistical analysis was done using a Student's t-test.
As reported previously, inhibition of Tiam-1 and subsequent inactivation of downstream signaling proteins leads to reduced actin cytoskeleton rearrangements resulting in decreased cell motility. […] FIG. 4, Panel A, A wound channel was introduced near-to-confluent non-treated or treated PC-3 cells with 10 μM V pKLO1 mock-transfection control cells, and shRNA cell line 1.2 (GS-1). […] FIG. 4, Panel B, PC-3 cells and Tiam-1 shRNA cell line 1.2 (shRNA 1.2) were treated as indicated, then stimulated with 20% FBS for 20 minutes to induce lamellipodia formation and stained with rhodamin phalloidin. Individual lamellipodia were counted in a minimum of 10 cells in each respective group and statistical analysis was performed using a Student's t-test. […] Invading cells were stained after 12 hours and counted at 20× power (left side). […] In order to test our hypothesis, cells were stained with rhodamin phalloidin and then analyzed for actin/cytoskeleton formations, such as lamellipodia. […]

PC-3 cells [4] = test: Matrigel invasion assay; conditions: for invasion: prostate cancer cells, concentration not given
Experimental: PC-3 cells were pre-treated with DMSO vehicle control or with drug for 4 hours in T-25 flasks. Thereafter, 50,000 cells were then plated into the upper chamber that has been pre-coated with Matrigel (BD Sciences, San Jose, Ca) in the presence of drug or DMSO and serum-free media. The bottom well contained complete media including 10% FBS and 0.5% BSA as chemoattractants. After 24 hours, the upper chambers were removed, and any remaining cells within the insert were wiped with a cotton swab. Invading cells were then stained with 2% crystal violet in 20% methanol. Cells were then counted using a Zeiss stereomicroscope at 20× power. 10 random fields were counted. The results represent an average of two independent experiments, each run in triplicates.
as §1, with “We next tested whether the compound of Formula V affected invasion of PC-3 through Matrigel-coated transwells.” left out

prostate cancer cells = test: Colony formation (FIG. 4, cell line not given)
Experimental: PC-3, LNCaP and DU145 cells were plated at 1000 cells/well into standard 6-well plates (3.5 cm) in the presence of complete media. The next day cells were drugged at increasing concentrations ranging from 1 to 50 μM in triplicate wells. Cells were viewed twice weekly to check for colony growth and confluence. Media and respective drugs were carefully replaced every three days. At day 12, media was aspirated and resulted colonies were stained with crystal violet (0.5% w/v) dissolved in ethanol for one minute, washed with water, and air dried as already described in reference. The resulting colonies were counted utilizing an Optronix Colony counter using ColCount software (Oxford Optronix Ltd, UK). The results represent an average of two independent experiments, each run in triplicates.

[5] = prostate cancer cells, concentration not given

Compound	reduction of active Rac1 [1]	migration / motility (wound healing) (PC-3 cells [2])	lamellipodia formation (PC-3 cells [3]; [5])	invasion (PC-3 cells [4])	colony formation (prostate cancer cells)	wound closure (PC-3 cells [2]; PC-3 cells, 10 μM, after 18 hours)	lamellipodia formation (PC-3 cells [3]; PC-3 cells, 10 μM, stimulation with 20% FBS)	invasion through Matrigel-coated transwells (PC-3 cells [4]; PC-3 cells, 10 μM)
c1ccc(Cn2nnc3c(Sc4nnc(-c5ccncc5)o4)ncnc32)cc1 [VI]	most pronounced and significant reduction of active Rac1	inhibits; also recorded: reduce migration	inhibits; also recorded: reduce lamellipodia formation	inhibits; also recorded: reduce invasion	inhibits	–	–	–
Cc1ccc(-n2cc(-c3cccs3)nc2SCc2n[nH]c(=S)n2Cc2ccccc2)cc1 [compound V]	most pronounced and significant reduction of active Rac1	inhibits; also recorded: reduce migration	inhibits; also recorded: reduce lamellipodia formation	inhibits; also recorded: reduce invasion	inhibits	significant inability to close a wound	significantly reduced the frequency of lamellipodia formation	significantly reduced amount of invading cells
